According to EP2651946B1, “2-SUBSTITUTED IMIDAZOPYRAZINES FOR USE AS MPS-1 AND TKK INHIBITORS IN THE TREATMENT OF HYPERPROLIFERATIVE DISORDERS” (Bayer Intellectual Property GmbH, priority 2010, dated 2012):

Target: T1, human kinase Mps-1 (Homo sapiens, UniProt P33981)
T1 construct: N-terminally GST-tagged human full length recombinant Mps-1 kinase; purchased Invitrogen, Karslruhe, Germany PV4071
T1 sequence (P33981 1-857): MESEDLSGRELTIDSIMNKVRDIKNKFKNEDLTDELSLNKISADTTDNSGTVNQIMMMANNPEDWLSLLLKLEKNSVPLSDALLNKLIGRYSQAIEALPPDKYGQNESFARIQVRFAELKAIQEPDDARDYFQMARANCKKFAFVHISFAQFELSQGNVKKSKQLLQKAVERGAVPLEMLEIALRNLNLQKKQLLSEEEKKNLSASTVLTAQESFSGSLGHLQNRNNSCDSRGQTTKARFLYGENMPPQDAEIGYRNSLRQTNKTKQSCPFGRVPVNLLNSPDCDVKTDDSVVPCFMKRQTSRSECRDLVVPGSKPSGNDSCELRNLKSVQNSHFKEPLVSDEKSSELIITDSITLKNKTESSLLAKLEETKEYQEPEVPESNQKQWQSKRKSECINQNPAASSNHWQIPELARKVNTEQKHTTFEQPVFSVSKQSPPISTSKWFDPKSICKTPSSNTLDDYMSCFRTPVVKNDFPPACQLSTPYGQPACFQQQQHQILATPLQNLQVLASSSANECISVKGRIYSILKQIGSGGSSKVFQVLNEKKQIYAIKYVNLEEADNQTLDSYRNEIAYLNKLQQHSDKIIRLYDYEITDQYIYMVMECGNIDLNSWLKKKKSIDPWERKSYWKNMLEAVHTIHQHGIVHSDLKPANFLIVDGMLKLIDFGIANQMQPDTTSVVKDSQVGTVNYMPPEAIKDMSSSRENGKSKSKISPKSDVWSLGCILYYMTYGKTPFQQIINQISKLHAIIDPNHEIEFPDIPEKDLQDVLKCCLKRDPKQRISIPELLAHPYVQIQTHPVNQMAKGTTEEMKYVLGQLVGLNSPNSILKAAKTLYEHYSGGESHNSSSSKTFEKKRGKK
Test: Mps-1 kinase assay (TR-FRET)
Assay type: biochemical
Conditions: N-terminally GST-tagged human full length recombinant Mps-1; 10 µM ATP; 1 µM peptide substrate; 15 min pre-incubation, 60 min reaction at 22°C; read-out: Mps1 IC50
Protocol: The human kinase Mps-1 phosphorylates a biotinylated substrate peptide. Detection of the phosphorylated product is achieved by time-resolved fluorescence resonance energy transfer (TR-FRET) from Europium-labelled anti-phospho-Serine/Threonine antibody as donor to streptavidin labelled with cross-linked allophycocyanin (SA-XLent) as acceptor. Compounds are tested for their inhibition of the kinase activity.
N-terminally GST-tagged human full length recombinant Mps-1 kinase (purchased from Invitrogen, Karslruhe, Germany, cat. no PV4071) was used. As substrate for the kinase reaction a biotinylated peptide of the amino-acid sequence PWDPDDADITEILG (C-terminus in amide form, purchased from Biosynthan GmbH, Berlin) was used.
For the assay 50 nL of a 100-fold concentrated solution of the test compound in DMSO was pipetted into a black low volume 384well microtiter plate (Greiner Bio-One, Frickenhausen, Germany), 2 µl of a solution of Mps-1 in assay buffer [0.1 mM sodium-ortho-vanadate, 10 mM MgCl2, 2 mM DTT, 25 mM Hepes pH 7.7, 0.05% BSA, 0.001% Pluronic F-127] were added and the mixture was incubated for 15 min at 22°C to allow pre-binding of the test compounds to Mps-1 before the start of the kinase reaction. […]
The resulting mixture was incubated 1 h at 22°C to allow the binding of the phosphorylated peptide to the anti-phospho(Ser/Thr)-Europium-antibody. Subsequently the amount of phosphorylated substrate was evaluated by measurement of the resonance energy transfer from the Europium-labelled anti-phospho(Ser/Thr) antibody to the Streptavidin-XLent. Therefore, the fluorescence emissions at 620 nm and 665 nm after excitation at 350 nm was measured in a Viewlux TR-FRET reader (PerkinElmer LAS, Rodgau-Jugesheim, Germany). The "blank-corrected normalized ratio" ( a Viewlux specific readout, similar to the traditional ratio of the emissions at 665 nm and at 622 nm, in which blank and Eudonor crosstalk are subtracted from the 665 nm signal before the ratio is calculated) was taken as the measure for the amount of phosphorylated substrate. […]

| Compound | IC50 [nM] |
| --- | --- |
| CC(C)CNc1nc(-c2ccccc2)cn2c(-c3ccc(C(=O)NC4CC4)cc3)c(CO)nc12 [Example 1-1, N-cyclopropyl-4-[2-(hydroxymethyl)-8-(isobutylamino)-6-phenylimidazo[1,2-a]pyrazin-3-yl]benzamide] | 178 |
| COC(=O)c1nc2c(NCC(C)C)nc(-c3ccccc3)cn2c1-c1ccc(C(=O)NC2CC2)cc1 [Example 3-1, Methyl 3-[4-(cyclopropylcarbamoyl)phenyl]-8-[(2-methylpropyl)amino]-6-phenylimidazo[1,2-a]pyrazine-2-carboxylate] | 4250 |
| CC(C)CNc1nc(-c2ccccc2)cn2c(-c3ccc(C(=O)NC4CC4)cc3)c(N)nc12 [Example 4-1, 4-[2-Amino-8-(isobutylamino)-6-phenylimidazo[1,2-a]pyrazin-3-yl]-N-cyclopropylbenzamide] | 16 |
